Data: ChEMBL document CHEMBL1681729, “2-aminomethylphenylamine as a novel scaffold for factor Xa inhibitor” (Bioorg Med Chem, 2011)
Converted amounts (≈) assume the structure as drawn.

Key:
[1] = Solubility of the compound in Japanese Pharmacopoeia First Fluid of pH 1.2 by HPLC; assay type: physicochemical
[2] = Solubility of the compound in Japanese Pharmacopoeia First Fluid of pH 6.8 by HPLC; assay type: physicochemical
[3] = Distribution coefficient, log D of the compound at pH 7.4 by LC-MS; assay type: physicochemical; settings: octanol/water
Coagulation factor X = Coagulation factor X (Homo sapiens, UniProt P00742); assay: Inhibition of factor 10a by S2222 chromogenic substrate assay by chromogenic assay
Coagulation factor X, sequence (P00742 41-179 limits assumed): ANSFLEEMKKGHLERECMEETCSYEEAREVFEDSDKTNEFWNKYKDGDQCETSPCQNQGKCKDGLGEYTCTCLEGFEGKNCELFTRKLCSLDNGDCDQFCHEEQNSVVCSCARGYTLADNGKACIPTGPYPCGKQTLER
Coagulation factor X, sequence (P00742 235-488 limits assumed): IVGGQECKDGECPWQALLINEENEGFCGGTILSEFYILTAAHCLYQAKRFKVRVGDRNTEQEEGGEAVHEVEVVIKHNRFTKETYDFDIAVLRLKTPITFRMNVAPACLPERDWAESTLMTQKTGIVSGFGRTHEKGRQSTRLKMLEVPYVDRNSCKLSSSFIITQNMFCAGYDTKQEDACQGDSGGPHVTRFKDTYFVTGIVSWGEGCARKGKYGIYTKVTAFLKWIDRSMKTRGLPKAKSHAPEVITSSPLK

Plasma = assay: Anticoagulant activity in human plasma assessed as concentration required to double prothrombin time; assay type: functional
Rattus norvegicus [4] = assay: Inhibition of factor 10a in overnight fasted Wistar rat plasma at 10 mg/kg, po after 0.5 hrs by S2222 chromogenic substrate assay; assay type: functional
Rattus norvegicus [5] = assay: Inhibition of factor 10a in overnight fasted Wistar rat plasma at 10 mg/kg, po after 1 hr by S2222 chromogenic substrate assay; assay type: functional
Rattus norvegicus [6] = assay: Inhibition of factor 10a in overnight fasted Wistar rat plasma at 10 mg/kg, po after 2 hrs by S2222 chromogenic substrate assay; assay type: functional
Rattus norvegicus [7] = assay: Inhibition of factor 10a in overnight fasted Wistar rat plasma at 10 mg/kg, po after 4 hrs by S2222 chromogenic substrate assay; assay type: functional
[8] = AUC (0 to 24 hrs) in serum of cynomolgus monkey at 1 mg/kg, po after 0.5 to 24 hrs; assay type: ADME, organism-based, Macaca fascicularis; design: time < 24 hr, dose 1 mg/kg, route oral
[9] = Cmax in serum of cynomolgus monkey at 1 mg/kg, po after 0.5 to 24 hrs by LC/MS/MS coupled with HPLC; assay type: ADME, organism-based, Macaca fascicularis; design: dose 1 mg/kg, route oral
[10] = Tmax in serum of cynomolgus monkey at 1 mg/kg, po after 0.5 to 24 hrs; assay type: ADME, organism-based, Macaca fascicularis; design: dose 1 mg/kg, route oral
[11] = Half life in serum of cynomolgus monkey at 1 mg/kg, po after 0.5 to 24 hrs; assay type: ADME, organism-based, Macaca fascicularis; design: dose 1 mg/kg, route oral

Compound	solubility [1] [µg/mL]	solubility [2] [µg/mL]	logD [3]	IC50 (Coagulation factor X) [nM]	Activity (Plasma) [µM]	further results
CN1CCc2nc(C(=O)Nc3ccccc3CNC(=O)c3cccc(Cl)c3)sc2C1	680 (≈ 1540 µM)	160 (≈ 363 µM)	3.3	1620		
CN1CCc2nc(C(=O)Nc3ccccc3CNC(=O)c3ccc(Cl)cn3)sc2C1	350 (≈ 792 µM)	380 (≈ 860 µM)	2.8	2480		
CN1CCc2nc(C(=O)NCc3ccccc3NC(=O)c3ccc(Cl)s3)sc2C1				5680		
CN1CCc2nc(C(=O)Nc3ccccc3CC(=O)Nc3ccc(Cl)cn3)sc2C1	600 (≈ 1360 µM)	100 (≈ 226 µM)	2.8	623	17	
CN1CCc2nc(C(=O)Nc3ccccc3CNC(=O)c3ccc(Cl)s3)sc2C1	150 (≈ 336 µM)	17 (≈ 38 µM)	3.3			
CC(C)N1CCC(NC(=O)c2ccccc2CNC(=O)c2ccc(Cl)s2)CC1	810 (≈ 1930 µM)	> 820	1.4	1930		
CN1CCc2nc(C(=O)N3CCC(NC(=O)c4ccc(Cl)s4)CC3)sc2C1				1020	>20	
CN1CCc2nc(C(=O)Nc3ccccc3CNC(=O)c3ccc(Cl)cc3)sc2C1	560 (≈ 1270 µM)	42 (≈ 95.2 µM)	3.4	642		
CN1CCc2nc(C(=O)Nc3ccccc3CNC(=O)c3cc(Cl)ccn3)sc2C1	760 (≈ 1720 µM)	150 (≈ 339 µM)	2.7	4150		
CN1CCc2nc(C(=O)Nc3ccccc3CNC(=O)c3ccc(Cl)s3)sc2C1.Cl						AUC(0-t) at 24 h [8]: 697 ng·h/mL; Cmax [9]: 83.7 ng/mL; Tmax [10]: 0.5 h; half-life [11]: 3.8 h
CN1CCc2nc(C(=O)Nc3ccccc3CNC(=O)c3ccc(Cl)[nH]3)sc2C1	> 810	33 (≈ 76.8 µM)	3.1	> 10000		
CN1CCc2nc(C(=O)N3CCCC(CNC(=O)c4ccc(Cl)s4)C3)sc2C1 (stereo unspecified)				6830		

Further lines, with some results ahead:

solubility [1] [µg/mL]	solubility [2] [µg/mL]	logD [3]	IC50 (Coagulation factor X) [nM]	Compound	Activity (Plasma) [µM]	further results
890 (≈ 1990 µM)	67 (≈ 150 µM)	2.8	11	CN1CCc2nc(C(=O)Nc3cccnc3CNC(=O)c3ccc(Cl)s3)sc2C1	1	
880 (≈ 1960 µM)	> 4.9	3.3	12	CN1CCc2nc(C(=O)Nc3ccncc3CNC(=O)c3ccc(Cl)s3)sc2C1	1.4	
< 2.3	< 2.3	2.8	4.1	O=C(Nc1ccccc1CNC(=O)c1ccc(Cl)s1)c1ccc(N2CCOCC2=O)cc1	0.91	inhibition in vivo at 10 mg/kg (Rattus norvegicus [4]): 17.1%; inhibition in vivo at 10 mg/kg (Rattus norvegicus [5]): 14.1%; inhibition in vivo at 10 mg/kg (Rattus norvegicus [6]): 12.7%; inhibition in vivo at 10 mg/kg (Rattus norvegicus [7]): 12.7%
690 (≈ 1600 µM)	170 (≈ 395 µM)	3.2	48	CN1CCc2nc(C(=O)Nc3ccccc3CNC(=O)c3cc(Cl)c[nH]3)sc2C1	2.2	
140 (≈ 298 µM)	120 (≈ 255 µM)	2.5	9	O=C(NCc1ccccc1C(=O)Nc1ccc(N2CCOCC2=O)cc1)c1ccc(Cl)s1	1	
			93	CN1CCc2nc(C(=O)NCCCNC(=O)c3ccc(Cl)s3)sc2C1	7.6	
> 640	100 (≈ 224 µM)	2.9	59	CN1CCc2nc(NC(=O)c3ccccc3CNC(=O)c3ccc(Cl)s3)sc2C1	2.3	
> 680	> 680	1.5	204	CC(C)N1CCC(C(=O)Nc2ccccc2CNC(=O)c2ccc(Cl)s2)CC1	5.2	
800 (≈ 1770 µM)	290 (≈ 640 µM)	3.7	27	CN1CCc2nc(C(=O)N[C@@H]3CCCC[C@@H]3CNC(=O)c3ccc(Cl)s3)sc2C1 (relative stereo)	3.4	
> 600	440 (≈ 971 µM)	3.5	439	CN1CCc2nc(C(=O)N[C@@H]3CCCC[C@H]3CNC(=O)c3ccc(Cl)s3)sc2C1 (relative stereo)	17	
860 (≈ 1920 µM)	120 (≈ 268 µM)	2.2	18	CN1CCc2nc(C(=O)Nc3ncccc3CNC(=O)c3ccc(Cl)s3)sc2C1	1.5	
> 590	> 590	2.6	13	CN1CCc2nc(C(=O)Nc3cnccc3CNC(=O)c3ccc(Cl)s3)sc2C1	1.8	
